# Laboratory results from patent US7655225B2, “Methods of expanding stem and progenitor cells and expanded cell populations obtained thereby” (Gamida Cell, Ltd., priority 2002, dated 2010).
# Legend:
# CD34+ cells [1] = assay: Self-renewal potential: colony-forming cells (CFU) from CD34+ cultures; assay type: cell-based, human; conditions: for number of colony-forming cells of CD34+ vs untreated control: 5 and 7 weeks incubation, different concentrations, TPO, FLT-3, IL-6, IL-3, FIGS. 15a-c; for CFUc: eight-week cultures, FIG. 2d, control 0; for numbers of CD34+ Lin− colony-forming cells, fold higher than untreated control: four weeks, with IL-3, FIG. 6d
# Description: Ex vivo expansion of progenitor cells: Enriched CD34^+ cell fractions were cultures in 24-well Costar Cell Culture Clusters (Corning Inc., Corning, N.Y.) or in Culture Bags (American Fluoroseal Corp.) with alpha minimal essential medium supplemented with 10% fetal bovine serum (FBS, Biological Industries), at about 1-3×10^4 cells/ml medium. The media were further supplemented with the following human recombinant cytokines (all obtained from Perpo Tech, Inc., Rocky Hill, N.J.): Thrombopoietin (TPO), 50 ng/ml; interleukin 6 (IL-6), 50 ng/ml; FLT-3 ligand, 50 ng/ml; and IL-3, 20 ng/ml. The cultures were incubated at 37° C. in an atmosphere of 5% CO2 in air with extra humidity. At weekly intervals cell cultures were semi-depopulated and supplemented with fresh medium containing the cytokines. Following different incubation periods, the cells were harvested, stained with trypan blue and enumerated. The total cell counts, numbers of CD34^+ cells and subsets thereof, and the number of colony-forming cells (CFU) are presented herein as cumulative numbers, with the assumption that the cultures had not been passaged, namely, the numbers of cells per ml were multiplied by the number of passages performed. Self-renewal potential evaluations: The self-renewal potential of stem cells was determined in vitro by long-term colony formation. Cells were washed and seeded in a semi-solid methylcellulose medium supplemented with 2 IU/ml erythropoietin ([…] Int., Switzerland), stem cell factor and IL-3, both at 20 ng/ml (Perpo Tech), and G-CSF and GM-CSF, both at 10 ng/ml (Perpo Tech). The resulting colonies were scored after two weeks of incubation at 37° C. in a humidified atmosphere of 5% CO2 in air. Colonies were classified as blast, mixed, erythroid, myeloid, and megakaryocytic, according to their cellular composition.
# CD34+ cells [2] = assay: Cellular copper content by atomic absorption; assay type: cell-based, human; conditions: 2 days incubation, relative to untreated control
# Procedure: Cell cultures: Cultures of enriched CD34^+ cell fraction were generated, maintained and analyzed as described in Example 1 above.
# Copper Determination: Cells were harvested by centrifugation at 1000 g for 5 minutes. The cell pellet was washed three times in PBS. Aliquots containing 2×10^6 cells were then transferred into a metal-free Eppendorf tube and pelleted by centrifugation at 1000 g. The cell pellet was re-suspended in 0.03 M ultra-pure nitric acid to give a concentration of 1×10^7 cells/ml. The cells were sonicated and then analyzed in duplicate by a Perkin Elmer graphite furnace atomic absorption spectrophotometer at a wavelength of 324.7 nm and a 0.7 slit width. The following times and temperatures were used: drying at 95° C. for 45 seconds with a 15-s ramp; charring at […] for 30 seconds with a 10-s ramp, and atomization at […] for 10 seconds. The peak area was integrated for 10 seconds. The samples were analyzed against copper standard solution prepared from a commercial stock solution that was diluted with 0.03 M ultra pure nitric acid.
# Effect of TEPA-Cu chelate and TEPA chelator on the cellular copper content: Purified CD34^+ cell were seeded in liquid culture in the presence of early cytokines and treated either with TEPA-Cu chelate or with TEPA chelator. After 2 days incubation, cells were separated from culture media and analyzed for cellular copper content. The results are presented in Table 1 below and indicate that cultured cells treated with TEPA-Cu chelate, at different concentrations, developed progressively higher cellular copper content. In contrast, cultured cells treated with TEPA chelator, at different concentrations, developed progressively lower cellular copper contents.
smiles,measurement,setting,value
"NCCNCCNCCNCCN [TEPA chelator, tetraethylenepentamine]",number of colony-forming cells of CD34+ vs untreated control,CD34+ cells [1],substantially increased
same,Relative cellular-copper content (%),CD34+ cells [2]; 5 μM,80%
same,Relative cellular-copper content (%),CD34+ cells [2]; 10 μM,55%
same,Relative cellular-copper content (%),CD34+ cells [2]; 20 μM,42%
"NCCNCCNCCNCCN.[Cl-].[Cl-].[Cu+2] [TEPA-Cu chelate, tetraethylenepentamine-copper chelate]",CFUc,CD34+ cells [1]; 5 μM,0 CFUc
same,CFUc,CD34+ cells [1]; 10 μM,1 CFUc
same,CFUc,CD34+ cells [1]; 15 μM,30 CFUc
same,CFUc,CD34+ cells [1]; 20 μM,120 CFUc
same,"numbers of CD34+ Lin− colony-forming cells, fold higher than untreated control",CD34+ cells [1]; 20 μM,7 fold
same,CFUc,CD34+ cells [1]; 40 μM,400 CFUc
same,"numbers of CD34+ Lin− colony-forming cells, fold higher than untreated control",CD34+ cells [1]; 40 μM,9 fold
same,"numbers of CD34+ Lin− colony-forming cells, fold higher than untreated control",CD34+ cells [1]; 50 μM,7.5 fold
same,effectiveness of higher vs lower concentrations on colony-forming cells,"CD34+ cells [1]; 100 μM vs 10 and 50 μM, 8 week-old cultures, FIG. 1",substantially more effective
same,number of colony-forming cells of CD34+ vs untreated control,CD34+ cells [1],substantially increased
same,colony-forming cells of CD34+ vs cultures treated only with cytokines,"CD34+ cells [1]; 8 week-old cultures, FIG. 1",substantially more colony-forming cells
same,numbers of CFUc vs non-treated control (cytokines only),"CD34+ cells [1]; longer incubation (5, 6, 8 weeks), chelate supplemented first three weeks, FIGS. 2b-d",substantially higher
same,Relative cellular-copper content (%),CD34+ cells [2]; 10 μM,178%
same,Relative cellular-copper content (%),CD34+ cells [2]; 30 μM,235%
same,Relative cellular-copper content (%),CD34+ cells [2]; 60 μM,290%
